Where a name gives a salt, the structure may show the parent alone.
Columns and labels:
[1] = target: His-tagged human recombinant kinase full-length Akt1 (Homo sapiens (Human), UniProt P31749); experiment: Akt1 kinase assay (TR-FRET); type: biochemical; conditions: 10 μM ATP; median
Excerpt: Akt1 inhibitory activity of compounds of the present invention was quantified employing the Akt1 TR-FRET assay as described in the following paragraphs. His-tagged human recombinant kinase full-length Akt1 expressed in insect cells was purchased form Invitrogen (part number PV 3599). As substrate for the kinase reaction the biotinylated peptide biotin-Ahx-[…] (C-terminus in amide form) was used which can be purchased e.g. from the company Biosynthan GmbH (Berlin-Buch, Germany).
(§1) For the assay 50 nl of a 100 fold concentrated solution of the test compound in DMSO was pipetted into a black low volume 384 well microtiter plate (Greiner Bio-One, Frickenhausen, Germany), 2 μl of a solution of Akt1 in assay buffer [50 mM TRIS/HCl pH 7.5, 5 mM MgCl2, 1 mM dithiothreitol, 0.02% (v/v) Triton X-100 (Sigma)] were added and the mixture was incubated for 15 min at 22° C. to allow pre-binding of the test compounds to the enzyme before the start of the kinase reaction. Then the kinase reaction was started by the addition of 3 μl of a solution of adenosine-tri-phosphate (ATP, 16.7 μM=>final conc. in the 5 μl assay volume is 10 μM) and substrate (1.67 μM=>final conc. in the 5 μl assay volume is 1 μM) in assay buffer and the resulting mixture was incubated for a reaction time of 60 min at 22° C. The concentration of Akt1 in the assay was adjusted depending of the activity of the enzyme lot and was chosen appropriate to have the assay in the linear range, typical enzyme concentrations were in the range of about 0.05 ng/μl (final conc. in the 5 μl assay volume).
(§2) The reaction was stopped by the addition of 5 μl of a solution of HTRF detection reagents (200 nM streptavidine-XL665 [Cisbio] and 1.5 nM anti-phosho-Serine antibody [Millipore, cat. #35-001] and 0.75 nM LANCE Eu-W 1024 labeled anti-mouse IgG antibody [Perkin Elmer]) in an aqueous EDTA-solution (100 mM EDTA, 0.1% (w/v) bovine serum albumin in 50 mM HEPES/NaOH pH 7.5).
(§3) The resulting mixture was incubated 1 h at 22° C. to allow the binding of the biotinylated phosphorylated peptide to the streptavidine-XL665 and the antibodies. Subsequently the amount of phosphorylated substrate was evaluated by measurement of the resonance energy transfer from the anti-mouse-IgG-Eu-Chelate to the streptavidine-XL665. Therefore, the fluorescence emissions at 620 nm and 665 nm after excitation at 350 nm was measured in a HTRF reader, e.g. a Rubystar (BMG Labtechnologies, Offenburg, Germany) or a Viewlux (Perkin-Elmer). The ratio of the emissions at 665 nm and at […] was taken as the measure for the amount of phosphorylated substrate. The data were normalised (enzyme reaction without inhibitor=0% inhibition, all other assay components but no enzyme=100% inhibition).

KPL-4 cells = experiment: Tumor cell proliferation assay (CellTiter-Glo); type: cell-based; conditions: KPL4; 72 h drug exposure
Protocol: Compounds were tested in a cell-based assay that measures the capacity of the compounds to inhibit tumour cell proliferation following a 72 h drug exposure. Cell viability is determined using CellTiter-Glow® (CTG, Promega, cat# G757112/3). The CellTiter-Glo® Luminescent Cell Viability Assay is a homogeneous method to determine the number of viable cells in culture. Detection is based on using the luciferase reaction to measure the amount of ATP from viable cells. The amount of ATP in cells correlates with cell viability. Within minutes after a loss of membrane integrity, cells lose the ability to synthesize ATP, and endogenous ATPases destroy any remaining ATP; thus the levels of ATP fall precipitously.
Cells were plated at 3000-5000 cells/well (depending on the cell lines) in 90 μL growth medium on MTPs (Corning; #3603, black plate, clear flat bottom). For each cell line assayed, cells were plated onto a separate plate for determination of […] at t=0 hour and t=72 hour time points. Following overnight incubation at 37° C., chemiluminescence values for the t=0 samples were determined after adding 10 μl medium and 100 μl CTG solution according to manufacture protocol. Plates for the t=72 hour time points were treated with compounds diluted into growth medium at ten times final concentration added in 10 μL to the cell culture plate. Cells were then incubated for 72 hours at 37° C. Chemiluminescence values for the t=72 hour samples were determined. For data analysis, briefly, data from 24 h plate where used to reflect 100% inhibition of growth (“Ci”) and DMSO control for uninhibited growth (“C0”) and analyzed using MTS software package for IC50 and Hill coefficient. Experiments were controlled using a reference compound as standard.

[2] = target: His-tagged human recombinant kinase full-length Akt2 (Homo sapiens (Human), UniProt P31751); experiment: Akt2 kinase assay (TR-FRET); type: biochemical; conditions: 10 μM ATP; median
Chain of His-tagged human recombinant kinase full-length Akt2 (P31751 whole entry): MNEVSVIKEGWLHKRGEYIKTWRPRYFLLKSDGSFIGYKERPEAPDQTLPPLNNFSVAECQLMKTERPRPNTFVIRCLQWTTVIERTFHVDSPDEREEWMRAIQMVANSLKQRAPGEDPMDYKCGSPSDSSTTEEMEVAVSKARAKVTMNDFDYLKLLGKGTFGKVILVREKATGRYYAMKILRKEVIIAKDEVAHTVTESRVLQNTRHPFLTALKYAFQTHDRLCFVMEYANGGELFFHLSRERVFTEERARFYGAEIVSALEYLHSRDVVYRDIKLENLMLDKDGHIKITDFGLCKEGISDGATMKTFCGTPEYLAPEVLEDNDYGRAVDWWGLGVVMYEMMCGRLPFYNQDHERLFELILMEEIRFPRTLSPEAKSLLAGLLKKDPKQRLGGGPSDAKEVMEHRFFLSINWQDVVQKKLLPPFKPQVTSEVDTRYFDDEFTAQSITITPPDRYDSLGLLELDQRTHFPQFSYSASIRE
Excerpt: Akt2 inhibitory activity of compounds of the present invention was quantified employing the Akt2 TR-FRET assay as described in the following paragraphs.
His-tagged human recombinant kinase full-length Akt2 expressed in insect cells and activated by PDK1 was purchased form Invitrogen (part number PV 3975). As substrate for the kinase reaction the biotinylated peptide biotin-Ahx-[…] (C-terminus in amide form) was used which can be purchased e.g. from the company Biosynthan GmbH (Berlin-Buch, Germany).
as §1, with “Akt2” for “Akt1”, “0.2” for “0.05”
as §2, with “0.1%/w/v\” for “0.1% (w/v)”
as §3, with “TR-FRET” for “HTRF”

[3] = test system: phospho-AKT at S473 in KPL4 breast tumour cell line; experiment: Cellular p-AKT1/2/3-S473 assay; type: cell-based; conditions: KPL4 cells, 2 hours treatment; median; read-out: pAKT-S743 median IC50
Protocol: The molecular mechanism of action was investigated in a set of experiments to assess the inhibition of the PI3K-AKT-mTOR pathway in responsive cell lines such as KPL4 breast tumour cell line (PIK3CAH1047R, HER2O/E and hormone independent). The phospho-substrates of PI3K-AKT-mTOR axis were used as the read-outs to reflect pathway inhibition. Cells were seeded at 60-80% confluency per well in 96-well cell culture plates. After overnight incubation at 37° C. 5% CO2, cells were treated with compounds and vehicle at 37° C. for 2 hours. […] All measurements where at least done in duplicates and confirmed by independent repetition.
Alternatively pAKT-S473 was measured using the “Akt Duplex” of the MULTI-SPOT® Assay System (Fa. Meso Scale Discovery, Cat# N41100B-1) following manufacturers instructions. Each assay used 20 μg of protein extract and measured total AKT and p-AKT content simultaneously in one well. All measurements where at least done in duplicates and confirmed by independent repetition. Values for P-AKT are expressed as percentage of P-AKT level compared to total-AKT content of the extracts.

Chain of His-tagged human recombinant kinase full-length Akt1 (P31749 whole entry): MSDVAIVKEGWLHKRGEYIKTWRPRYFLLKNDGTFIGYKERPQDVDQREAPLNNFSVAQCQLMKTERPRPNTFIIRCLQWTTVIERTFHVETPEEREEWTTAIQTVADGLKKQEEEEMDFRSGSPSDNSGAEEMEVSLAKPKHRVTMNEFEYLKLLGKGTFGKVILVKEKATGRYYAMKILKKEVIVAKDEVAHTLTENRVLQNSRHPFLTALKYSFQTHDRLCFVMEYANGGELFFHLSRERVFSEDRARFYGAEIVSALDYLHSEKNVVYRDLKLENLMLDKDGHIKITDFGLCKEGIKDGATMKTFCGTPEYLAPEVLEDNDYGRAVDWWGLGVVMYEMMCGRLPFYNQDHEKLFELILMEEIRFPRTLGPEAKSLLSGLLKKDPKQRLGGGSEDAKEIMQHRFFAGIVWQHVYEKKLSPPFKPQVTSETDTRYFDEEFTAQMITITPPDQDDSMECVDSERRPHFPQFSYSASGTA

| IC50 [1] | IC50 (KPL-4 cells) | IC50 [2] | IC50 [3] | Compound |
| --- | --- | --- | --- | --- |
| 15000 nM | 3850 nM | 16800 nM | 10000 nM | Cc1nc2cc(-c3ccccc3)c(-c3ccc(C4(N)CCC4)cc3)nn2c1-c1cccc(C(N)=O)c1 [Example 5-0, 3-{6-[4-(1-Amino-cyclobutyl)-phenyl]-2-methyl-7-phenyl-imidazo[1,2-b]pyridazin-3-yl}-benzamide] |
| 4430 nM | 2280 nM | 5110 nM | 9170 nM | Cc1nc2cc(-c3ccccc3)c(-c3ccc(C4(N)CCC4)cc3)nn2c1-c1ccc(F)cc1 [Example 5-3, 1-{4-[3-(4-Fluorophenyl)-2-methyl-7-phenyl-imidazo[1,2-b]pyridazin-6-yl]-phenyl}-cyclobutylamine] |
| 8940 nM | 3200 nM | 16700 nM | 10000 nM | C=Cc1c(C)nc2cc(-c3ccccc3)c(-c3ccc(C4(N)CCC4)cc3)nn12 [Example 12-0, 1-[4-(2-Methyl-7-phenyl-3-vinyl-imidazo[1,2-b]pyridazin-6-yl)-phenyl]-cyclobutylamine] |
| 2730 nM | 3690 nM | 5230 nM | 4110 nM | Cc1nc2cc(-c3ccccc3)c(-c3ccc(C4(N)CCC4)cc3)nn2c1-c1ccn[nH]1 [Example 5-5, 1-{4-[2-Methyl-7-phenyl-3-(2H-pyrazol-3-yl)-imidazo[1,2-b]pyridazin-6-yl]-phenyl}-cyclobutylamine] |
| 99 nM | 3030 nM | 106 nM | 610 nM | NC1(c2ccc(-c3nn4c(-c5ccc(F)cc5)c(Cl)nc4cc3-c3ccccc3)cc2)CCC1 [Example 7-0, 1-{4-[2-Chloro-3-(4-fluorophenyl)-7-phenyl-imidazo[1,2-b]pyridazin-6-yl]-phenyl}-cyclobutylamine] |

More lines, now with the values behind:

| Compound | IC50 [1] | IC50 (KPL-4 cells) | IC50 [2] | IC50 [3] |
| --- | --- | --- | --- | --- |
| N#Cc1cccc(-c2cnc3cc(-c4ccccc4)c(-c4ccc(C5(N)CCC5)cc4)nn23)c1 [Example 3-0, 3-{6-[4-(1-Amino-cyclobutyl)-phenyl]-7-phenyl-imidazo[1,2-b]pyridazin-3-yl}-benzonitrile] | 5 nM | 1710 nM | 82 nM | 1550 nM |
| NC1(c2ccc(-c3nn4c(-c5ccc(O)nc5)cnc4cc3-c3ccccc3)cc2)CCC1 [Example 4-13, 5-{6-[4-(1-Amino-cyclobutyl)-phenyl]-7-phenyl-imidazo[1,2-b]pyridazin-3-yl}-pyridin-2-ol] | 146 nM | 3360 nM | 431 nM | 160 nM |
| Cc1cn2nc(-c3ccc(C4(N)CCC4)cc3)c(-c3ccccc3)cc2n1 [Example 1-1, 1-[4-(2-Methyl-7-phenyl-imidazo[1,2-b]pyridazin-6-yl)-phenyl]-cyclobutylamine hydrochloride] | 17300 nM | 10000 nM | 20000 nM | 10000 nM |
| NC1(c2ccc(-c3nn4c(-c5ccc(CO)cc5)cnc4cc3-c3ccccc3)cc2)CCC1 [Example 4-6, (4-{6-[4-(1-Amino-cyclobutyl)-phenyl]-7-phenyl-imidazo[1,2-b]pyridazin-3-yl}-phenyl)-methanol formiate] | 19 nM | 1590 nM | 123 nM | 30 nM |
| NC1(c2ccc(-c3nn4c(-c5cccc(CO)c5)cnc4cc3-c3ccccc3)cc2)CCC1 [Example 4-5, (3-{6-[4-(1-Amino-cyclobutyl)-phenyl]-7-phenyl-imidazo[1,2-b]pyridazin-3-yl}-phenyl)-methanol] | 6 nM | 1310 nM | 37 nM | 30 nM |
| NC(=O)c1cccc(-c2cnc3cc(-c4ccccc4)c(-c4ccc(C5(N)CCC5)cc4)nn23)c1 [Example 4-11, 3-{6-[4-(1-Amino-cyclobutyl)-phenyl]-7-phenyl-imidazo[1,2-b]pyridazin-3-yl}-benzamide hydrochloride] | 13 nM | 1410 nM | 68 nM | 20 nM |
| COC(=O)c1ccc(-c2cnc3cc(-c4ccccc4)c(-c4ccc(C5(N)CCC5)cc4)nn23)cn1 [Example 4-14, 5-{6-[4-(1-Amino-cyclobutyl)-phenyl]-7-phenyl-imidazo[1,2-b]pyridazin-3-yl}-pyridine-2-carboxylic acid methyl ester] | 19 nM | 6020 nM | 115 nM | 920 nM |
